Source: patent US11667602B2, “Compounds and their use” (AstraZeneca AB, priority 2020, dated 2023)
In brackets after ≈: the same amount, converted by molar mass.

Tests used:
[1] = Human Plasma Protein Binding (Test B); type: in vitro ADME; conditions: fraction unbound (fu)
Summary of the method: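 Values given as % free (fu) in human plasma, using the method of Wernevik et al. (2020). For compounds tested more than once, the arithmetic mean is given.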

[2] = Human Liver Microsomal Stability (Test C); type: in vitro ADME; conditions: human, liver microsomes
Summary of the method: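 CLint (μl/min/mg protein) derived from compound depletion in human liver microsomes following a published standardized early-DMPK protocol; replicate determinations given as arithmetic mean.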

[3] = Rat Hepatocyte Stability (Test E); type: in vitro ADME; conditions: rat, hepatocytes, geometric mean if run multiple times
Summary of the method: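 Intrinsic clearance in rat hepatocytes, expressed as μl/min/10^6 cells, following the literature integrated DMPK panel method. Repeat determinations combined as geometric mean.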

Solubility (Test F) = type: physicochemical; conditions: arithmetic mean if run multiple times
Experimental: The assay was conducted according to the Solubility Assay described in pages 164-167 of Wernevik, J. et al., “A Fully Integrated Assay Panel for Early Drug Metabolism and Pharmacokinetics Profiling”, Assay and Drug Development Technologies, 2020, 18(4), 157-179. Data are reported in Table 36 as solubility ([…]. Where the assay was run multiple times for the same compound, the arithmetic mean is reported.

human RXFP1 = molecular target: T1, human RXFP1 (Homo sapiens, UniProt Q9HBX9); assay: RXFP1 Hu cAMP (Test A); type: cell-based; design: expressed in transfected cells; host or cells: Jump-In T-REx CHO-K1 cells (ThermoFisher), induced with 10 ng/ml doxycycline for 24 h; conditions: RXFP1 Hu cAMP; for EC50: read-out: Test A EC50
T1 sequence (Q9HBX9 1-757): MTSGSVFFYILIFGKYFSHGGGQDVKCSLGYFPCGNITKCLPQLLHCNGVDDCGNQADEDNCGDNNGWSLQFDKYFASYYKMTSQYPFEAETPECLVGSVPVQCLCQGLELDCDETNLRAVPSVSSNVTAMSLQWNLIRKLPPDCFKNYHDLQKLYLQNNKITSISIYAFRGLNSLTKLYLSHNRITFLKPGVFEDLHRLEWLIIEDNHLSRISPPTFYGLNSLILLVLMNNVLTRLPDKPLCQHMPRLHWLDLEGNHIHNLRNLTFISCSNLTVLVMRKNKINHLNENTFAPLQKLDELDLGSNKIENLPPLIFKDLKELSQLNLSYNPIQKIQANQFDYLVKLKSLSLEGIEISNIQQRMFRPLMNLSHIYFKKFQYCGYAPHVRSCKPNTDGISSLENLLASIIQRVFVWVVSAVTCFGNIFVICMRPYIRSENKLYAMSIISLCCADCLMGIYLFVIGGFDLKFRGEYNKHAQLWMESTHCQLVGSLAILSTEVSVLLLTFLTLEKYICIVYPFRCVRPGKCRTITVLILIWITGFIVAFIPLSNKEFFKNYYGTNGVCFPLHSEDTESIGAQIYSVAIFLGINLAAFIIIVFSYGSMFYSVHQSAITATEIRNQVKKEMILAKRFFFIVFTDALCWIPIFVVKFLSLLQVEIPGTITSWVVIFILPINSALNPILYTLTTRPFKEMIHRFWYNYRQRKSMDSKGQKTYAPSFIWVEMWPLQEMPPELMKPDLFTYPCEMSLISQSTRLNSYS
Summary of the method: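 Cells: CHO-K1 stably carrying human RXFP1, expressed after 24 h 10 ng/ml doxycycline; 0.5 mM IBMX final, HTRF detection after 2 h at room temperature.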

Structure (SMILES)	Test B Human Plasma Protein Binding (% free) [1] [% free]	microsomal CLint [2] [µL/min/mg]	hepatocyte CLint [3] [µL/min/1e6 cells]	solubility (Solubility (Test F)) [µM]	Test A Sinf (human RXFP1) [%]	EC50 (human RXFP1) [µM]
COc1cc(C#N)c(O[C@H]2CC[C@@](C)(C(=O)O)CC2)cc1C(=O)N[C@@H]1[C@H]2CC[C@H](C2)[C@@H]1C(=O)NCC1C(C)(C)C1(C)C [Example 84]	4	160	19	340 (≈ 197 µg/mL)	112	0.015
COc1cc(C#N)c(O[C@H]2CC[C@@](C)(C(=O)O)CC2)cc1C(=O)N[C@@H]1[C@H]2CC[C@H](C2)[C@@H]1C(=O)NCC1(F)CCOCC1 [Example 110]	44	< 3	19	950 (≈ 556 µg/mL)	102	0.74
COc1cc(F)c(O[C@H]2CC[C@H](NS(C)(=O)=O)CC2)cc1C(=O)N[C@@H]1[C@H]2CC[C@H](C2)[C@@H]1C(=O)Nc1cccc(S(=O)(=O)C(F)(F)F)c1 [Example 460, (1R,2S,3R,4S)-3-(4-fluoro-2-methoxy-5-(((1r,4R)-4-(methylsulfonamido)cyclohexyl)oxy)benzamido)-N-(3-((trifluoromethyl)sulfonyl)phenyl)bicyclo[2.2.1]heptane-2-carboxamide]	0.32	300	47	2 (≈ 1.41 µg/mL)	103	0.37
COc1cc(F)c(O[C@H]2CC[C@@H](C(=O)O)CC2)cc1C(=O)N[C@@H]1[C@H]2CC[C@H](C2)[C@@H]1C(=O)Nc1cccc(C(F)(F)F)c1C [Example 24]	1.8	29	45	590 (≈ 358 µg/mL)	97	1
COc1cc(F)c(O[C@H]2CC[C@@H](C(=O)O)CC2)cc1C(=O)N[C@@H]1[C@H]2CC[C@H](C2)[C@@H]1C(=O)Nc1cc(F)cc(S(F)(F)(F)(F)F)c1 [Example 17, (1S,4s)-4-(2-Fluoro-5-(((1S,2R,3S,4R)-3-((3-fluoro-5-(pentafluoro-6-sulfaneyl)phenyl)carbamoyl)bicyclo[2.2.1]heptan-2-yl)carbamoyl)-4-methoxyphenoxy)cyclohexane-1-carboxylic acid]	<0.21	20	11	150 (≈ 100 µg/mL)	110	0.048
COc1cc(C#N)c(O[C@H]2CC[C@@](C)(C(=O)O)CC2)cc1C(=O)N[C@@H]1[C@H]2CC[C@H](C2)[C@@H]1C(=O)NCC1(CF)CC1 [Example 95]	18	4.4	21	880 (≈ 489 µg/mL)	123	0.48
COc1cc(C#N)c(O[C@H]2CC[C@@](C)(C(=O)O)CC2)cc1C(=O)N[C@@H]1[C@H]2CC[C@H](C2)[C@@H]1C(=O)NCc1nccc(C(F)F)n1 [Example 114]	17	17	94	810 (≈ 495 µg/mL)	–	> 9.4
COc1cc(F)c(O[C@H]2CC[C@@](C)(C(=O)O)CC2)cc1C(=O)N[C@@H]1CCC[C@@H]1C(=O)NCC(C)(C)C#N [Example 69]	33	6.3	6.4	970 (≈ 502 µg/mL)	93	> 2.7
COc1cc(C#N)c(O[C@H]2CC[C@@](C)(C(=O)O)CC2)cc1C(=O)N[C@@H]1[C@H]2CC[C@H](C2)[C@@H]1C(=O)NCC1(CC(C)C)CCC1 [Example 106]	1.7	> 300	29	170 (≈ 101 µg/mL)	112	0.0097
COc1cc(F)c(O[C@H]2CC[C@@](C)(C(=O)O)CC2)cc1C(=O)Nc1cccc(Cl)c1C(=O)NCC1(C)CCC1 [Example 54, (1s,4s)-4-(5-((3-Chloro-2-(((1-methylcyclobutyl)methyl)carbamoyl)phenyl)carbamoyl)-2-fluoro-4-methoxyphenoxy)-1-methylcyclohexane-1-carboxylic acid]	1.1	16	13	2.8 (≈ 1.57 µg/mL)	108	0.49
COc1cc(F)c(O[C@H]2CC[C@@H](C(=O)O)CC2)cc1C(=O)N[C@@H]1[C@H]2CC[C@H](C2)[C@@H]1C(=O)Nc1cc(C(F)(F)F)cc(C(F)(F)F)c1 [Example 22, (1S,4s)-4-(5-(((1S,2R,3S,4R)-3-((3,5-Bis(trifluoromethyl)phenyl)carbamoyl)bicyclo[2.2.1]heptan-2-yl)carbamoyl)-2-fluoro-4-methoxyphenoxy)cyclohexane-1-carboxylic acid]	0.23	23	14	51 (≈ 33.7 µg/mL)	130	–
COc1cc(F)c(O[C@H]2CC[C@@H](C(=O)O)CC2)cc1C(=O)N[C@@H]1[C@H]2CC[C@H](C2)[C@@H]1C(=O)Nc1cc(C(F)(F)F)ccn1 [Example 14, (1S,4s)-4-(2-Fluoro-4-methoxy-5-(((1S,2R,3S,4R)-3-((4-(trifluoromethyl)pyridin-2-yl)carbamoyl)bicyclo[2.2.1]heptan-2-yl)carbamoyl)phenoxy)cyclohexane-1-carboxylic acid]	1.8	18	27	770 (≈ 457 µg/mL)	83	0.51
COc1cc(F)c(-c2cccc(C(=O)O)c2)cc1C(=O)N[C@H]1[C@@H](C(=O)Nc2cccc(S(=O)(=O)C(F)(F)F)c2)[C@@H]2C=C[C@H]1C2 (racemic) [Example 225, rac-2′-Fluoro-4′-methoxy-5′-(((1R,2R,3S,4S)-3-((3-((trifluoromethyl)sulfonyl)phenyl)carbamoyl)bicyclo[2.2.1]hept-5-en-2-yl)carbamoyl)-[1,1′-biphenyl]-3-carboxylic acid]	0.10	6.6	22	10 (≈ 6.33 µg/mL)	98	0.24
O=C(N[C@@H]1[C@H]2CC[C@H](C2)[C@@H]1C(=O)Nc1cccc(S(=O)(=O)C(F)(F)F)c1)c1cc(O[C@H]2CC[C@@H](C(=O)O)CC2)c(F)cc1F [Example 430]	3	61	22	760 (≈ 490 µg/mL)	101	> 0.23
COc1cc(F)c(O[C@H]2CC[C@@H](C(=O)O)CC2)cc1C(=O)N[C@@H]1[C@H]2CC[C@H](C2)[C@@H]1C(=O)Nc1ccc(C#N)c(Br)c1 [Example 27, (1S,4s)-4-(5-(((1S,2R,3S,4R)-3-((3-Bromo-4-cyanophenyl)carbamoyl)bicyclo[2.2.1]heptan-2-yl)carbamoyl)-2-fluoro-4-methoxyphenoxy)cyclohexane-1-carboxylic acid]	0.40	29	> 300	990 (≈ 622 µg/mL)	88	0.13
COc1cc(F)c(O[C@H]2CC[C@@H](C(=O)O)CC2)cc1C(=O)N[C@@H]1[C@H]2CC[C@H](C2)[C@@H]1C(=O)Nc1cc(C#N)cc(C(F)(F)F)c1 [Example 191, (1S,4s)-4-(5-(((1S,2R,3S,4R)-3-((3-Cyano-5-(trifluoromethyl)phenyl)carbamoyl)bicyclo[2.2.1]heptan-2-yl)carbamoyl)-2-fluoro-4-methoxyphenoxy)cyclohexane-1-carboxylic acid]	1.1	20	15	> 1000	86	> 3.6
